Data reported in patent US9149038B2, “4-amino-6-(heterocyclic)picolinates and 6-amino-2-(heterocyclic)pyrimidine-4-carboxylates and their use as herbicides” (Dow AgroSciences LLC, priority 2013, dated 2015).
Like-named read-outs stand apart in the source and are kept apart here.

Test system: Direct Seeded Rice and weed species
Test: Postemergence herbicidal activity in direct seeded rice, visual rating after 20-22 days and probit GR20/GR50/GR80/GR90 (Table 14)
Assay type: in vivo
Conditions: for pest or weed control at 17.5 g/ha / pest or weed control at 35 g/ha / pest or weed control at 70 g/ha: post-emergence, 504 h, postemergence; for pest or weed control at 17.5 g/ha: 17.5 g ai/ha; for pest or weed control at 35 g/ha: 35 g ai/ha; for pest or weed control at 70 g/ha: 70 g ai/ha
In short: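 Rice and weeds grown in loam–sand soil (pH about 8.1) in greenhouse to 2nd–3rd true leaf, then sprayed postemergence at 187 L/ha in acetone/DMSO with 1.25% (v/v) Agri-dex crop oil. Injury rated visually 0–100 after 20-22 days versus untreated plants; GR20, GR50, GR80, GR90 obtained by probit analysis across dose rates.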

[1] = BRAPP (broadleaf signalgrass, Brachiaria platyphylla), read-out: Visual Growth Reduction (%) 21 Days After Application BRAPP
[2] = CYPDI (small-flower flatsedge, Cyperus difformis), read-out: Visual Growth Reduction (%) 21 Days After Application CYPDI
[3] = CYPES (yellow nutsedge, Cyperus esculentus), read-out: Visual Growth Reduction (%) 21 Days After Application CYPES
[4] = CYPIR (rice flatsedge, Cyperus iria), read-out: Visual Growth Reduction (%) 21 Days After Application CYPIR
[5] = DIGSA (large crabgrass, Digitaria sanguinalis), read-out: Visual Growth Reduction (%) 21 Days After Application DIGSA
[6] = ECHCG (barnyardgrass, Echinochloa crus-galli), read-out: Visual Growth Reduction (%) 21 Days After Application ECHCG
[7] = ECHCO (junglerice, Echinochloa colonum), read-out: Visual Growth Reduction (%) 21 Days After Application ECHCO
[8] = LEFCH (Chinese sprangletop, Leptochloa chinensis), read-out: Visual Growth Reduction (%) 21 Days After Application LEFCH
[9] = ORYSJ (Oryza sativa, rice crop), read-out: Visual Growth Reduction (%) 21 Days After Application ORYSJ
[10] = ORYSK (Oryza sativa, rice crop), read-out: Visual Growth Reduction (%) 21 Days After Application ORYSK
[11] = SCPJU (Japanese bulrush, Schoenoplectus juncoides Roxb.), read-out: Visual Growth Reduction (%) 21 Days After Application SCPJU
[12] = SEBEX (hemp sesbania, Sesbania exaltata), read-out: Visual Growth Reduction (%) 21 Days After Application SEBEX

COC(=O)c1nc(-c2ccc3c(c2F)OC(F)(F)O3)cc(N)c1Cl [Compound 37, Methyl 4-amino-3-chloro-6-(2,2,4-trifluorobenzo-[d][1,3]dioxol-5-yl)picolinate]
GR50 BRAPP (BRAPP (Brachiaria platyphylla), probit analysis, dose for 50 percent growth reduction): 3 g ai/ha
GR80 BRAPP (BRAPP (Brachiaria platyphylla), probit analysis, dose for 80 percent growth reduction): 15 g ai/ha
GR90 BRAPP (BRAPP (Brachiaria platyphylla), probit analysis, dose for 90 percent growth reduction): 39 g ai/ha
GR50 CYPDI (CYPDI (Cyperus difformis), probit analysis, dose for 50 percent growth reduction): 0.04 g ai/ha
GR80 CYPDI (CYPDI (Cyperus difformis), probit analysis, dose for 80 percent growth reduction): 1 g ai/ha
GR90 CYPDI (CYPDI (Cyperus difformis), probit analysis, dose for 90 percent growth reduction): 2 g ai/ha
GR50 CYPES (CYPES (Cyperus esculentus), probit analysis, dose for 50 percent growth reduction): <18 g ai/ha
GR80 CYPES (CYPES (Cyperus esculentus), probit analysis, dose for 80 percent growth reduction): <18 g ai/ha
GR90 CYPES (CYPES (Cyperus esculentus), probit analysis, dose for 90 percent growth reduction): <18 g ai/ha
GR50 CYPIR (CYPIR (Cyperus iria), probit analysis, dose for 50 percent growth reduction): 6 g ai/ha
GR80 CYPIR (CYPIR (Cyperus iria), probit analysis, dose for 80 percent growth reduction): 23 g ai/ha
GR90 CYPIR (CYPIR (Cyperus iria), probit analysis, dose for 90 percent growth reduction): 46 g ai/ha
GR50 DIGSA (DIGSA (Digitaria sanguinalis), probit analysis, dose for 50 percent growth reduction): 0.07 g ai/ha
GR80 DIGSA (DIGSA (Digitaria sanguinalis), probit analysis, dose for 80 percent growth reduction): 2 g ai/ha
GR90 DIGSA (DIGSA (Digitaria sanguinalis), probit analysis, dose for 90 percent growth reduction): 8 g ai/ha
GR50 ECHCG (ECHCG (Echinochloa crus-galli), probit analysis, dose for 50 percent growth reduction): 0.33 g ai/ha
GR80 ECHCG (ECHCG (Echinochloa crus-galli), probit analysis, dose for 80 percent growth reduction): 4 g ai/ha
GR90 ECHCG (ECHCG (Echinochloa crus-galli), probit analysis, dose for 90 percent growth reduction): 17 g ai/ha
GR50 ECHCO (ECHCO (Echinochloa colonum), probit analysis, dose for 50 percent growth reduction): 0.001 g ai/ha
GR80 ECHCO (ECHCO (Echinochloa colonum), probit analysis, dose for 80 percent growth reduction): 0.2 g ai/ha
GR90 ECHCO (ECHCO (Echinochloa colonum), probit analysis, dose for 90 percent growth reduction): 3 g ai/ha
GR50 LEFCH (LEFCH (Leptochloa chinensis), probit analysis, dose for 50 percent growth reduction): 116 g ai/ha
GR80 LEFCH (LEFCH (Leptochloa chinensis), probit analysis, dose for 80 percent growth reduction): 288 g ai/ha
GR90 LEFCH (LEFCH (Leptochloa chinensis), probit analysis, dose for 90 percent growth reduction): 464 g ai/ha
GR20 ORYSJ (ORYSJ (Oryza sativa, rice crop), probit analysis, dose for 20 percent growth reduction): 56 g ai/ha
GR20 ORYSK (ORYSK (Oryza sativa, rice crop), probit analysis, dose for 20 percent growth reduction): 70 g ai/ha
GR50 SCPJU (SCPJU (Schoenoplectus juncoides Roxb.), probit analysis, dose for 50 percent growth reduction): 0.0001 g ai/ha
GR80 SCPJU (SCPJU (Schoenoplectus juncoides Roxb.), probit analysis, dose for 80 percent growth reduction): 0.0001 g ai/ha
GR90 SCPJU (SCPJU (Schoenoplectus juncoides Roxb.), probit analysis, dose for 90 percent growth reduction): 0.0001 g ai/ha
GR50 SEBEX (SEBEX (Sesbania exaltata), probit analysis, dose for 50 percent growth reduction): 2 g ai/ha
GR80 SEBEX (SEBEX (Sesbania exaltata), probit analysis, dose for 80 percent growth reduction): 15 g ai/ha
GR90 SEBEX (SEBEX (Sesbania exaltata), probit analysis, dose for 90 percent growth reduction): 47 g ai/ha
pest or weed control at 17.5 g/ha [1]: 60 to 74%
pest or weed control at 35 g/ha [1]: 85 to 94%
pest or weed control at 70 g/ha [1]: 95 to 100%
pest or weed control at 17.5 g/ha [2]: 95 to 100%
pest or weed control at 35 g/ha [2]: 95 to 100%
pest or weed control at 70 g/ha [2]: 95 to 100%
pest or weed control at 17.5 g/ha [3]: 75 to 84%
pest or weed control at 35 g/ha [3]: 85 to 94%
pest or weed control at 70 g/ha [3]: 95 to 100%
pest or weed control at 17.5 g/ha [4]: 85 to 94%
pest or weed control at 35 g/ha [4]: 45 to 59%
pest or weed control at 70 g/ha [4]: 95 to 100%
pest or weed control at 17.5 g/ha [5]: 85 to 94%
pest or weed control at 35 g/ha [5]: 95 to 100%
pest or weed control at 70 g/ha [5]: 95 to 100%
pest or weed control at 17.5 g/ha [6]: 85 to 94%
pest or weed control at 35 g/ha [6]: 85 to 94%
pest or weed control at 70 g/ha [6]: 95 to 100%
pest or weed control at 17.5 g/ha [7]: 85 to 94%
pest or weed control at 35 g/ha [7]: 95 to 100%
pest or weed control at 70 g/ha [7]: 95 to 100%
pest or weed control at 17.5 g/ha [8]: 0 to 29%
pest or weed control at 35 g/ha [8]: 0 to 29%
pest or weed control at 70 g/ha [8]: 45 to 59%
pest or weed control at 17.5 g/ha [9]: 0 to 29%
pest or weed control at 35 g/ha [9]: 0 to 29%
pest or weed control at 70 g/ha [9]: 30 to 44%
pest or weed control at 17.5 g/ha [10]: 0 to 29%
pest or weed control at 35 g/ha [10]: 0 to 29%
pest or weed control at 70 g/ha [10]: 0 to 29%
pest or weed control at 17.5 g/ha [11]: 95 to 100%
pest or weed control at 35 g/ha [11]: 95 to 100%
pest or weed control at 70 g/ha [11]: 95 to 100%
pest or weed control at 17.5 g/ha [12]: 75 to 84%
pest or weed control at 35 g/ha [12]: 85 to 94%
pest or weed control at 70 g/ha [12]: 95 to 100%
